Test results: patent US20190388421A1, “NOVEL COMPOUNDS AND PHARMACEUTICAL COMPOSITIONS THEREOF FOR THE TREATMENT OF FIBROSIS” (Galapagos NV, priority 2016, published 2019)

Experiments:
[1] = molecular target: T1, human GPCR sphingosine 1-phosphate receptor 5 (S1PR5) (Homo sapiens, UniProt Q9H228); assay: S1PR5 selectivity assay (Ca2+ flux, antagonist, S1PR5 specific agonist trigger); format: cell-based; details: S1P5 antagonist EC50, CHO cells overexpressing human S1PR5 and Gq protein
T1 construct: host or cells: CHO
Description: (§1) After readout of the agonist activity, the plates are incubated for 15 min at 37° C. and 5% CO2. Then, cells are stimulated with 10 μL Sphingosine-1-Phosphate (S1P) (Avanti Polar lipids-860492P) at its EC80 concentration. Intracellular Ca^2+ changes are immediately measured by reading fluorescence during 3 min (FDSS/μCELL reader). The ratio of the maximal fluorescence over the background fluorescence before compound injection is used to determine compound response.
(§2) For EC50 determination, a 10 point dilution series of compounds starting from 23.3 μM and 20 μM highest final concentration for agonist and antagonist respectively, ⅓ dilution was performed.
(§3) The obtained ratio's for agonist and antagonist readout were normalized versus vehicle and EC100 of S1P as controls for agonist mode and versus vehicle and EC80 of S1P for antagonist mode. From these normalized data EC50 of the compounds are derived.
(§4) To evaluate the selectivity of the compounds for S1PR2 over S1PR1 and S1PR5, a similar assay set up as described above for the S1PR2 calcium flux assays was performed: CHO cells stably overexpressing human GPCR sphingosine 1-phosphate receptor 1 and Gq protein (Euroscreen, FAST-0197A) or overexpressing human GPCR sphingosine 1-phosphate receptor 5 and Gq protein were used (Perkin Elmer, ES-593-A). In case of the S1PR5 assay triggering was done with an S1PR5 specific agonist instead of with S1P (Hobson et al., 2015).

[2] = molecular target: T2, human GPCR sphingosine 1-phosphate receptor 1 (S1PR1) (Homo sapiens, UniProt P21453); assay: S1PR1 selectivity assay (Ca2+ flux, antagonist); format: cell-based; details: S1P1 antagonist EC50, CHO cells overexpressing human S1PR1 and Gq protein
T2 construct: host or cells: CHO
Description: as §1, §2, §3, §4

S1PR2 = molecular target: T3, S1PR2 (Homo sapiens, UniProt O95136); assay: GTP-γS binding assay ([35S]GTPγS, S1P at EC80, S1PR2 membranes); format: biochemical; details: membranes from stable cell line over expressing S1PR2, read-out: S1PR2 EC
T3 construct: expressed in transfected cells
Description: The following assay can be used for determination of S1PR2 activation. The [^35S] GTPγS assay measures the level of G protein activation following agonist occupation of a GPCR, by determining the binding of the non-hydrolysable analog [^35S] GTPγS to Gα subunits.
The assay is performed in a 96 well plate where the following reagents are added. First 50 μL compound is added into the assay plate, followed by addition of 20 μL S1P at EC80 concentration (concentration which gives 80% of the activity of S1PR2). Then, 30 μL of a mixture consisting of membranes-GTPγS-SpA beads is added [mixture consists of 2.5 μg/well membranes derived from stable cell line over expressing S1PR2 (membranes are pre-incubated with 1 μM GDP for 15 min at 4° C.), 0.1 nM [35S]GTPγS (Perkin Elmer, NEG030) and 0.5 mg/well PVT-WGA SpA beads (Perkin Elmer, RPNQ0001)]. All components are diluted in assay buffer containing 20 mM Tris pH 7.5; 10 mM MgCl2; 100 mM NaCl; 0.1% BSA FAF; 50 ug/ml saponin. After an incubation for 4 h at room temperature, plates are centrifuged at 2000 rpm during 20 min. Plates are read on a Topcount reader (Perkin Elmer) immediately after centrifugation (readout time, 1 min/well).

[3] = molecular target: T4, human GPCR sphingosine 1-phosphate receptor 2 (S1PR2) (Homo sapiens, UniProt O95136); assay: S1P2 antagonist assay (Ca2+ flux, S1P at EC80); format: cell-based; details: CHO-S1PR2 cells, highest concentration 20 μM
T4 construct: host or cells: CHO
Description: Triggering of S1PR2 by administration of Sphingosine-1-phosphate leads to a transient increase in intracellular Ca^2+. The Ca^2+ flux assays are measuring the release of Ca^2+ intracellularly by use of a Ca^2+ sensitive fluorescent dye. The assay is firstly run in agonist mode (incubation of compounds alone) to ensure that the Ca^2+ released measured is not caused by the test compound having an agonistic effect. Then the assay is continued in antagonist mode (Sphingosine-1-Phosphate added to incubated medium containing the test compounds).
CHO cells stably overexpressing human GPCR sphingosine 1-phosphate receptor 2 (CHO—S1PR2 Perkin Elmer; ES-594-A) are seeded from a frozen stock in 384 wells sterile microplates (50 μL; 7,500 cells/well) and are incubated overnight at 37° C. and 5% CO2. The next day cells are washed twice with starvation medium (F-12 Ham's medium containing 0.1% BSA (Fatty acid free: FAF)) and left in […] starvation medium for 1 h at 37° C., 5% CO2. After this starvation cells are incubated with […] buffer containing the Ca^2+-sensitive fluorescent dye (0.5 mg Fluo8+125 mg Allura Red in 100 ml of 1% DMSO, in HBSS+20 mM Hepes+5 mM probenecid). The cells are incubated for an additional 1 hour after which 10 μL compounds, diluted in HBSS buffer with 20 mM Hepes and 0.1% BSA (FAF), are added to the cells and intracellular Ca^2+ changes are immediately measured by reading fluorescence during 3 min (FDSS/μCELL reader). The ratio of the maximal fluorescence over the background fluorescence before compound injection is used to determine compound response.
as §1, §2, §3

T3 sequence (O95136 whole entry): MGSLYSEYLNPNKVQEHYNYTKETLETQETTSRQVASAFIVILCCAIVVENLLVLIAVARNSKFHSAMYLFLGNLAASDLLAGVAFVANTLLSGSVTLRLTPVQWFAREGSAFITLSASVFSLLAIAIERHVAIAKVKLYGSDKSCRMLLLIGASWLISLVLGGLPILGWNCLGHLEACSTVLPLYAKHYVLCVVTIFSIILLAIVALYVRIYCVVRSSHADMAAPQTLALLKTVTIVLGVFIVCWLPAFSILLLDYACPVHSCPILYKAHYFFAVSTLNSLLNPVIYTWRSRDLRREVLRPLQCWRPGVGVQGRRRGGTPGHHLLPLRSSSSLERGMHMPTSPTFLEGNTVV
T4 sequence (O95136 whole entry): as above
T1 sequence (Q9H228 whole entry): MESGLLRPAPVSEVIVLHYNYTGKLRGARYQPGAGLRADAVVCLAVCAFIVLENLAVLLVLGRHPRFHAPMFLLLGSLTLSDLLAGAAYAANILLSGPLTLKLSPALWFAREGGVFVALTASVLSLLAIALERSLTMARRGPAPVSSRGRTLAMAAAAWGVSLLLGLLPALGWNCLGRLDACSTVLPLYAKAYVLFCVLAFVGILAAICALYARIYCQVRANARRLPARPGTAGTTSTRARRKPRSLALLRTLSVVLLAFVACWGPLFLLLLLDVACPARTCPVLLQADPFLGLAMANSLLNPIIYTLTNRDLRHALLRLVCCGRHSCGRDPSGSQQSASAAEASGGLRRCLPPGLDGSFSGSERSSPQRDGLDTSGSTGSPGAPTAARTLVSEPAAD
T2 sequence (P21453 whole entry): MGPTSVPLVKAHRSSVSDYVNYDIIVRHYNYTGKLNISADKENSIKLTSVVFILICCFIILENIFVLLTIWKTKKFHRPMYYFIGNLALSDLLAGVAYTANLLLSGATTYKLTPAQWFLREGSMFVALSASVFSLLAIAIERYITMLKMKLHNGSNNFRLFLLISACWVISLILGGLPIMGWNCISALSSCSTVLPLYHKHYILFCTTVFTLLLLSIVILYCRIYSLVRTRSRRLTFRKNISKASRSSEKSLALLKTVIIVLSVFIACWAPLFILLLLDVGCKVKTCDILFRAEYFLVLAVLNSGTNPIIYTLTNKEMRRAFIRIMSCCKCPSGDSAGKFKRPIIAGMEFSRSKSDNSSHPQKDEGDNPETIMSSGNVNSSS

Structure (SMILES)	EC50 [1]	EC50 [2]	EC50 (S1PR2)	EC50 [3]
Cc1cc(CNC(=O)Nc2cc(Cl)cc(Cl)c2)nnc1-c1cn(C)nc1C(F)(F)F [Compound 6, 1-(3,5-dichlorophenyl)-3-[[5-methyl-6-[1-methyl-3-(trifluoromethyl)pyrazol-4-yl]pyridazin-3-yl]methyl]urea]	–	–	50.2 nM	16.9 nM
Cc1cc(CNC(=O)Nc2cnc(OCC(F)F)c(C(F)(F)F)c2)nnc1-c1cn(C)nc1C(F)(F)F [Compound 7, 1-[6-(2,2-difluoroethoxy)-5-(trifluoromethyl)-3-pyridyl]-3-[[5-methyl-6-[1-methyl-3-(trifluoromethyl)pyrazol-4-yl]pyridazin-3-yl]methyl]urea]	≥ 19800 nM	≥ 19800 nM	330 nM	17.8 nM
Cc1cc(CNC(=O)Nc2cnc(OCC3CC3)c(C(F)(F)F)c2)nnc1-c1cn(C)nc1C(F)(F)F [Compound 11, 1-[6-cyclopropyl-methoxy-5-(trifluoromethyl)-3-pyridyl]-3-[[5-methyl-6-[1-methyl-3-(trifluoromethyl)pyrazol-4-yl]pyridazin-3-yl]methyl]urea]	–	–	716 nM	49.6 nM
Cc1cc(CNC(=O)Nc2cnc(OCC(F)(F)F)c(C(F)(F)F)c2)nnc1-c1cn(C)nc1C(F)(F)F [Compound 12, 1-[[5-methyl-6-[1-methyl-3-(trifluoromethyl)pyrazol-4-yl]pyridazin-3-yl]methyl]-3-[6-(2,2,2-trifluoroethoxy)-5-(trifluoromethyl)-3-pyridyl]urea]	–	–	590 nM	11.7 nM
Cc1cc(CNC(=O)Nc2cnc(OCC3CC3)c(Cl)c2)nnc1-c1cn(C)nc1C(F)(F)F [Compound 13, 1-[5-chloro-6-(cyclopropyl-methoxy)-3-pyridyl]-3-[[5-methyl-6-[1-methyl-3-(trifluoromethyl)pyrazol-4-yl]pyridazin-3-yl]methyl]urea]	–	–	1120 nM	40.3 nM
Cc1cc(CNC(=O)Nc2cc(Cl)nc(OCC(F)(F)F)c2)nnc1-c1cn(C)nc1C(F)(F)F [Compound 14, 1-[2-chloro-6-(2,2,2-trifluoroethoxy)-4-pyridyl]-3-[[5-methyl-6-[1-methyl-3-(trifluoromethyl)pyrazol-4-yl]pyridazin-3-yl]methyl]urea]	–	–	225 nM	24.2 nM
Cc1cc(CNC(=O)Nc2cc(OCC(F)F)nc(C(F)(F)F)c2)nnc1-c1cn(C)nc1C(F)(F)F [Compound 19, 1-[2-(2,2-difluoroethoxy)-6-(trifluoromethyl)-4-pyridyl]-3-[[5-methyl-6-[1-methyl-3-(trifluoromethyl)pyrazol-4-yl]pyridazin-3-yl]methyl]urea]	–	–	88.7 nM	17.1 nM
Cc1cc(CNC(=O)Nc2cc(OCC(F)F)nc(C3CC3)c2)nnc1-c1cn(C)nc1C(F)(F)F [Compound 29, 1-[2-cyclopropyl-6-(2,2-difluoroethoxy)-4-pyridyl]-3-[[5-methyl-6-[1-methyl-3-(trifluoromethyl)pyrazol-4-yl]pyridazin-3-yl]methyl]urea]	–	–	275 nM	27.3 nM
CCOc1cc(NC(=O)NCc2cc(C)c(-c3cn(C)nc3C(F)(F)F)nn2)nc(OCC)n1 [Compound 31, 1-(2,6-diethoxy-pyrimidin-4-yl)-3-[[5-methyl-6-[1-methyl-3-(trifluoromethyl)pyrazol-4-yl]pyridazin-3-yl]methyl]urea]	–	–	1650 nM	3140 nM
Cc1cc(CNC(=O)Nc2cc(Cl)c(F)c(Cl)c2)nnc1-c1cn(C)nc1C(F)(F)F [Compound 32, 1-(3,5-dichloro-4-fluoro-phenyl)-3-[[5-methyl-6-[1-methyl-3-(trifluoromethyl)pyrazol-4-yl]pyridazin-3-yl]methyl]urea]	–	–	164 nM	11.1 nM

Continued, values first:

EC50 [1]	EC50 [2]	EC50 (S1PR2)	EC50 [3]	Structure (SMILES)
2480 nM	6610 nM	–	–	CCOc1cc(NC(=O)NCc2cc(C)c(N3CC(C)O[C@H](C)C3)nn2)cc(C(F)(F)F)n1 (stereo in doubt) [Compound 100, 1-[[6-[(2R,6S)-2,6-dimethyl-morpholin-4-yl]-5-methyl-pyridazin-3-yl]methyl]-3-(2-ethoxy-6-(trifluoromethyl)-4-pyridyl]urea]
–	–	164 nM	37.1 nM	Cc1cc(CNC(=O)Nc2cc(OCC3CC3(F)F)nc(C(F)(F)F)c2)nnc1-c1cn(C)nc1C(F)(F)F (centres unmarked) [Compound 33, 1-[2-[(2,2-difluoro-cyclopropyl)methoxy]-6-(trifluoromethyl)-4-pyridyl]-3-[[5-methyl-6-[1-methyl-3-(trifluoromethyl)pyrazol-4-yl]pyridazin-3-yl]methyl]urea]
–	–	1800 nM	791 nM	Cc1cc(CNC(=O)Nc2cc(OCC3CCOC3)nc(C(F)(F)F)c2)nnc1-c1cn(C)nc1C(F)(F)F (centres unmarked) [Compound 36]
–	–	–	11.5 nM	CCOc1nc(C(F)(F)F)cc(NC(=O)NCc2cc(C)c(-c3cn(C)nc3C(F)(F)F)nn2)c1Br [Compound 49, 1-[3-bromo-2-ethoxy-6-(trifluoromethyl)-4-pyridyl]-3-[[5-methyl-6-[1-methyl-3-(trifluoromethyl)pyrazol-4-yl]pyridazin-3-yl]methyl]urea]
–	–	–	6510 nM	Cc1cc(CNC(=O)Nc2cnc(OCC(F)F)c(Cl)c2)nnc1N1CC(C)OC(C)C1 (centres unmarked) [Compound 84, 1-[5-chloro-6-(2,2-difluoroethoxy)-3-pyridyl]-3-[[6-(2,6-dimethyl-morpholin-4-yl)-5-methyl-pyridazin-3-yl]methyl]urea]
–	–	–	1360 nM	CCOc1ncc(NC(=O)NCc2cc(C)c(N3CC(C)OC(C)C3)nn2)cc1Cl (centres unmarked) [Compound 86, 1-(5-chloro-6-ethoxy-3-pyridyl)-3-[[6-(2,6-dimethyl-morpholin-4-yl)-5-methyl-pyridazin-3-yl]methyl]urea]
–	–	–	4510 nM	Cc1cc(CNC(=O)Nc2cnc(OCC3CC3)c(Cl)c2)nnc1N1CC(C)OC(C)C1 (centres unmarked) [Compound 88, 1-[5-chloro-6-(cyclopropyl-methoxy)-3-pyridyl]-3-[[6-(2,6-dimethyl-morpholin-4-yl)-5-methyl-pyridazin-3-yl]methyl]urea]
809 nM	6610 nM	–	–	CCOc1nc(C)cc(NC(=O)NCc2cc(C)c(N3C[C@@H](C)O[C@@H](C)C3)nn2)c1C [Compound 95, 1-[[6-[(2R,6S)-2,6-dimethyl-morpholin-4-yl]-5-methyl-pyridazin-3-yl]methyl]-3-(2-ethoxy-3,6-dimethyl-4-pyridyl)urea]
–	–	16300 nM	–	CCOc1cc(N[14C](=O)NCc2cc(C)c(-c3cn(C)nc3C(F)(F)F)nn2)cc(C(F)(F)F)n1 [Compound 98, 1-(2-Ethoxy-6-trifluoromethyl-pyridin-4-yl)-3-[5-methyl-6-(1-methyl-3-trifluoromethyl-1H-pyrazol-4-yl)-pyridazin-3-ylmethyl]-C14 urea]
